Source: patent US10696622B2, “Synthesis of N-vinyl carboxylic acid amides” (Taminco BVBA, priority 2016, dated 2020)

Assay: Solubility in solvent, CIPAC Method MT 181 at 20° C.
Type: physicochemical
From the text: When used, the solvent introduced into first reaction zone 20 may be any suitable type of solvent. The solvent may include a single solvent, or it may comprise a mixture of two or more solvents. In some embodiments, the solvent may be selected based on its solubility with one or more of the starting materials in lines 110, 112, and/or 114, and/or with the reaction product produced within first reaction zone 20. For example, at least one of the starting materials introduced into and/or the product withdrawn from first reaction zone 20 may have a solubility of at least about 20, at least about 25, at least about 30, at least about 35, at least about 40, at least about 45, at least about 50, at least about 55 weight percent in the solvent introduced into first reaction zone 20. In addition, or the alternative, at least one of the reagents introduced into and/or the reaction product withdrawn from first reaction zone 20 may have a solubility of not more than about 80, not more than about 75, not more than about 70, not more than about 65 weight percent in the solvent introduced into first reaction zone 20. Solubility is measured at 20° C. using CIPAC Method MT 181, unless otherwise noted.

CC(O)NC=O (centres unmarked) [1-hydroxyethylformamide]
solubility of 1-hydroxyethylformamide in formamide (in formamide): about 60 weight percent
solubility of 1-hydroxyethylformamide in isopropanol (in isopropanol, measured as described above (20° C., CIPAC Method MT 181)): 20.1 weight percent
